Literature values, collected in US20240197636A1, “TISSUE-SPECIFIC NUCLEIC ACID DELIVERY BY MIXED CATIONIC LIPID PARTICLES” (OMEGA THERAPEUTICS, INC., priority 2021, published 2024).

## CCCCC/C=C\C/C=C\CCCCCCCCC(CCCCCCCC/C=C\C/C=C\CCCCC)OC(=O)CCCN(C)C [MC3, (6Z,9Z,28Z,31Z)-heptatriaconta-6,9,28,31-tetraen-19-yl 4-(dimethylamino) butanoate]
  pKa: 6.4
